Where two headings read alike, the source gives them in different places.
How the values were obtained:
[1] = (Polman, 2005; Sandberg-Wollheim, 2005); cited from earlier work
[2] = test system: subjects with relapsing remitting multiple sclerosis (RRMS); experiment: Phase III clinical trial ALLEGRO: daily oral laquinimod 0.6 mg vs placebo; type: in vivo, human; details: daily oral 0.6 mg, RRMS patients
Experimental: A multinational, multicenter (approximately 175 centers), randomized, double-blinded, parallel-group, placebo-controlled clinical trial (“ALLEGRO”) is conducted to evaluate the safety, tolerability and efficacy of daily oral administration of laquinimod 0.6 mg in subjects with relapsing remitting multiple sclerosis (RRMS). A multinational, multicenter, randomized, double-blind, parallel-group, placebo-controlled study, to evaluate the safety, tolerability and efficacy of daily oral administration of laquinimod 0.6 mg in subjects with relapsing remitting multiple sclerosis (RRMS). Double blind treatment phase: 24 months of once-daily oral administration of daily dose of 0.6 mg laquinimod or matching placebo Eligible subjects are equally randomized into one of the following treatment arms: • 1. Laquinimod capsules 0.6 mg. The 0.6 mg laquinimod is administered as laquinimod capsules which contains 0.6 mg of Laquinimod Acid per capsule with meglumine. • 2. Matching placebo capsules. Subjects are evaluated at study sites for 12 scheduled visits of the double blind phase at months: −1 (screening), 0 (baseline), 1, 2, 3, 6, 9, 12, 15, 18, 21 and 24 (termination/early discontinuation). In case of the 6 months extended study, subjects are evaluated at study sites at months 27 and 30 (termination/early discontinuation of extended study), in this case month 24 is a regular scheduled visit. The following assessments are performed at specified time points: • 1. Vital signs are measured at each study visit. • 2. A physical examination is performed at months −1 (screening), 0 (baseline) 1, 3, 6, 12, 18 and 24 (termination/early discontinuation core study). In case of the 6 months extended study, additional examination is performed at month 30 (termination/early discontinuation of extended study). • 3. The following safety clinical laboratory tests are performed: • a. Complete blood count (CBC) with differential—at all scheduled visits. A reticulocyte count is added to the CBC at months 0 (baseline) and 24/30 (termination/early discontinuation). • b. Serum chemistry (including electrolytes, liver enzymes, direct and total bilirubin and pancreatic amylase and CPK), and urinalysis—at all scheduled visits. • c. A rapid urine β-hCG test is performed in women of child-bearing potential at baseline (month 0) and at each scheduled study visit thereafter (at site). • d. β-hCG in women of child-bearing potential is performed at all scheduled visits. • e. Starting after visit Month 3 a rapid urine β-hCG test is performed in women of child-bearing potential every 28 (±2) days. The subject is contacted by telephone within 72 hours after the test is scheduled to be performed and asked specific questions regarding the test. In case of suspected pregnancy (positive urine β-hCG test result), the caller makes sure that the study drug has been discontinued and the subject is instructed to arrive at the site as soon as possible with all study drugs. • 4. Markers of inflammation (serum conventional C-reactive protein and fibrinogen)—at screening, baseline and all scheduled visits thereafter. • 5. During the first 3 months periodical phone calls are placed by the site personnel every two weeks. […] ECG is performed at months −1 (screening; additional recording, up to 30 minutes apart is performed if QTc is […] 450 msec), (baseline; three recordings, 15 minutes apart), 1, 2, 3, 6, 12, 18 and 24 (termination/early discontinuation). In case of the 6 months extended study, ECG is performed at month 30 (termination/early discontinuation of the extended study). • 7. Chest X-ray is performed at months −1 (screening), (if not performed within 7 months prior to the screening visit). • 8. Adverse Events (AEs) are monitored throughout the study. • 9. Concomitant medications are monitored throughout the study. • 10. […]

[3] = test system: Relapsing-Remitting Multiple Sclerosis; details: 0.3 mg/day oral dose (Comi, 2007); cited from earlier work
[4] = test system: subjects with Relapsing-Remitting Multiple Sclerosis (RRMS); experiment: Phase III clinical trial BRAVO: laquinimod over placebo, with Interferon β-1a (Avonex®) reference arm; type: in vivo, human; details: daily oral 0.6 mg, RRMS patients
Experimental: A multinational, multicenter, randomized, parallel-group, clinical trial is performed in subjects with RRMS (“BRAVO”). BRAVO is conducted to assess the efficacy, safety and tolerability of laquinimod over placebo in a double-blinded design and of a reference arm of Interferon β-1a (Avonex®) in a rater-blinded design. A multinational, Multicenter, Randomized, Parallel-Group study performed in subjects with Relapsing-Remitting Multiple Sclerosis (RRMS) to assess the efficacy, safety and tolerability of laquinimod over placebo in a double-blind design and of a reference arm of Interferon β-1a (Avonex®)in a rater-blinded design. Treatment phase: 24 months of once-daily oral administration of laquinimod 0.6 mg, matching oral placebo or once-weekly intramuscular administration of Interferon β-1a (Avonex®) 30 mcg. Eligible subjects are randomized in a 1:1:1 ratio (oral laquinimod: oral placebo: Avonex®) and assigned to one of the following three treatment arms: • 1. Laquinimod 0.6 mg per os once daily (400 subjects). The 0.6 mg laquinimod is administered as laquinimod capsules which contains 0.6 mg of Laquinimod Acid per capsule with meglumine. • 2. Matching placebo (for laquinimod) per os once daily (400 subjects). • 3. Interferon β-1a (Avonex®) 30 mcg intramuscular injection once weekly (400 subjects). Subjects on oral treatment are managed in a double-blind manner. Subjects assigned to injectable treatment with Avonex® and their Treating Neurologist/Physician are unblinded to the treatment assignment, but assessed neurologically by an Examining Neurologist/Physician in a blinded manner (potential IM injection sites are covered). During the study, the following assessments are performed (regardless of the treatment assignment) at the specified time points: • 1. Vital signs are measured at each study visit. • 2. A physical examination is performed at months −1 (screening), 0 (baseline) 1, 3, 6, 12, 18 and 24 (termination/early discontinuation). • 3. The following safety clinical laboratory tests are performed: • a. Complete blood count (CBC) with differential—at all scheduled visits. A reticulocyte count is added to the CBC at months 0 (baseline) and 24 (termination/early discontinuation) as well as in occasions of significant decrease in hemoglobin. • b. Serum chemistry (including electrolytes, liver enzymes, direct and total bilirubin, CPK and pancreatic amylase), and urinalysis—at all scheduled visits. • c. Serum TSH, T3 and Free T4 are measured at months 0 (baseline), 6, 12, 18 and 24 (termination/early discontinuation). • d. […] Markers of inflammation (serum conventional C-reactive protein and fibrinogen) are measured at all scheduled visits. • 5. […]

[5] = test system: relapsing MS; details: cited from earlier work

Row | Structure (SMILES) | oral bioavailability [1] | MRI-monitored disease activity: cumulative number of enhancing lesions on T1-weighted images [2] | MRI-monitored disease activity: cumulative number of new T2 lesions [2] | MRI-monitored disease activity: cumulative number of new hypointense lesions on T1-scans [2] | accumulation of physical disability, as measured by the time to confirmed progression of EDSS [2] | relapse rate ([2]; double blind study period) | number of confirmed relapses during the double blind study period ([2]; vs placebo) | MRI and clinical effect as compared to placebo [3] | accumulation of physical disability, as measured by the MSFC score at the end of the treatment period [4] | accumulation of physical disability, as measured by time to confirmed progression of EDSS [4] | brain atrophy, as measured by percent brain volume change from baseline to the end of the treatment period [4] | number of confirmed relapses (directly related to the relapse rate) ([4]; treatment period) | development of active MRI lesions ([5]; 0.3 mg/day oral dose, relapsing MS (RRMS and SPMS) (Polman, 2005)) | development of active MRI lesions ([5]; relapsing MS, dose not stated (Polman, 2005))
1 | CCN(C(=O)c1c(O)c2c(Cl)cccc2n(C)c1=O)c1ccccc1 [Laquinimod sodium] | high |  |  |  |  |  |  |  |  |  |  |  |  | 
2 | CCN(C(=O)c1c(O)c2c(Cl)cccc2n(C)c1=O)c1ccccc1 [laquinimod] |  | reduces | reduces | reduces | reduces | reduces | reduces | neither MRI nor clinical effect | reduces | reduces | reduces | reduces | reduce | reduce
